Experimental data from patent US20110077279A1, “ANGIOTENSIN II RECEPTOR ANTAGONISTS” (priority 2008, published 2011).

Tests used:
[1] = system: conscious spontaneously hypertensive rats (SHRs); assay: Assay for antihypertensive activity (in vivo), telemetry; set-up: species or system rat
Procedure: The ability of the compounds of the invention to decrease blood pressure was evaluated in conscious spontaneously hypertensive rats (SHRs). SHRs (250-300 g) received a single oral dose of tested compounds. Systolic blood pressure (SBP) and heart rate were monitored by telemetry for 24 hrs after dosing. SBP was evaluated before (baseline) and at different time points (i.e. 2-6, 12, 21-24 hrs) following treatment by oral administration of the compounds. The data were processed both as the absolute value or as a delta between the absolute value and its own baseline.
The Dataquest IV telemetry system (Data Sciences International) was used for measurement of systolic pressure, diastolic pressure, mean arterial pressure, heart rate, and motor activity. The monitoring system consists of a transmitter (radio frequency transducer model TA11PA), receiver panel, consolidation matrix, and personal computer with accompanying software. Before the device was implanted, calibrations were verified to be accurate within ±3 mmHg. Rats were anesthetized with ketamine/xylazine/acepromazine, and the flexible catheter of the transmitter was surgically secured in the abdominal aorta just below the renal arteries. The transmitter was sutured subcutaneously. Rats were housed in individual cages after the operation. Each cage was placed over the receiver panel that was connected to the personal computer for data acquisition. The rats were unrestrained and free to move within their cages. Hemodynamic data were sampled every 2 minutes for 10 seconds.
Compared to Compound A (reference compound), the compounds of the invention provided BP lowering with extended peak effect and duration of action (see Data Table 2).

[2] = system: isolated rabbit thoracic aorta preparations; assay: Assay on vascular tone: vasorelaxation of noradrenaline-precontracted aortic rings; format: cell-based; conditions: Oryctolagus cuniculus; rabbit aortic rings precontracted with noradrenaline 1 μM, functional endothelium; read-out: EC50 in vessel relaxation assay
Procedure: The ability of the compounds of the invention to induce vasorelaxation in comparison to native angiotensin II receptor blockers (ARBs), was tested in vitro in isolated rabbit thoracic aorta preparations (Wanstall J. C. et al., Br. J. Pharmacol., 134:463-472, 2001). Male New Zealand rabbits were anaesthetized with thiopental-Na (50 mg/kg, iv), sacrificed by exsanguinations and then the thorax was opened and the aorta dissected. Aortic ring preparations (4 mm in length) were set up in physiological salt solution (PSS) at 37° C. in small organ chambers (5 ml). The composition of PSS was (mM): NaCl 130, NaHCO3 14.9, KH2PO4 1.2, MgSO4 1.2, HEPES 10, […] (95% O2/5% CO2; pH 7.4). Each ring was mounted under 2 g passive tension. Isometric tension was recorded with a Grass transducer (Grass FT03) attached to a BIOPAC MP150 System. Preparations were allowed to equilibrate for 1 h, and then contracted submaximally with noradrenaline (NA, 1 μM) and, when the contraction was stable, acetylcholine (ACh, 10 μM) was added. A relaxant response to ACh indicated the presence of a functional endothelium. […] When a stable precontraction was reached, a cumulative concentration-response curve to either of the vasorelaxant agents was obtained in the presence of a functional endothelium. Each arterial ring was exposed to only one combination of inhibitor and vasorelaxant. Moreover, the effect of the soluble guanylyl cyclase inhibitor ODQ (1-H-(1,2,4)-oxadiazol(4,3-a)quinoxalin-1-one) on vasorelaxation elicited by the compounds was examined preincubating the aortic rings with ODQ (10 μM) for 20 min.
Responses to relaxing agents are expressed as a percentage of residual contraction and plotted against concentration of test compound. EC50 values (where EC50 is the concentration producing 50% of the maximum relaxation to the test compound) were interpolated from these plots.
During the experimental period, the plateau obtained with NA was stable without significant spontaneous loss of contraction in the aortic rings. […]

[3] = 2-6 h after single oral dose, 10 mpk
[4] = 21-24 h after single oral dose, 10 mpk
[5] = 12 h after single oral dose, 10 mpk

Row | SMILES | Δ SBP in SHR [1, 3] | Δ SBP in SHR [1, 4] | Δ SBP in SHR [1, 5] | EC50 [2] | Δ SBP in SHR ([1]; 2-6 h after single oral dose, 3 mpk) | Δ SBP in SHR ([1]; 21-24 h after single oral dose, 3 mpk) | Δ SBP in SHR ([1]; 12 h after single oral dose, 3 mpk)
1 | CCCCc1nc(Cl)c(C(=O)OCCOCCO[N+](=O)[O-])n1Cc1ccc(-c2ccccc2-c2nn[nH]n2)cc1 [A, reference compound] | −15 mmHg | −8 mmHg | −12 mmHg |  |  |  | 
2 | CCCCc1nc(Cl)c(C(=O)OC(C)OC(=O)O[C@@H]2CO[C@H]3[C@@H]2OC[C@H]3OC(=O)CCCC(CO[N+](=O)[O-])O[N+](=O)[O-])n1Cc1ccc(-c2ccccc2-c2nnn[nH]2)cc1 (stereo partly drawn) [Example 1, 1-(((3R,3aR,6R,6aR)-6-(5,6-bis(nitrooxy)hexanoyloxy)hexahydrofuro[3,2-b]furan-3-yloxy)carbonyloxy)ethyl 1-((2′-(1H-tetrazol-5-yl)biphenyl-4-yl)methyl)-2-butyl-4-chloro-1H-imidazole-5-carboxylate] | −19 mmHg | −11 mmHg | −14 mmHg | 6200 nM |  |  | 
3 | CCOc1nc2cccc(C(=O)OC(C)(C)OC(=O)O[C@@H]3CO[C@H]4[C@@H]3OC[C@H]4OC(=O)CCCC(CO[N+](=O)[O-])O[N+](=O)[O-])c2n1Cc1ccc(-c2ccccc2-c2nnn[nH]2)cc1 (stereo partly drawn) [Example 2, 2-(((3R,3aR,6R,6aR)-6-(5,6-bis(nitrooxy)hexanoyloxy)hexahydrofuro[3,2-b]furan-3-yloxy)carbonyloxy)propan-2-yl 1-((2′-(1H-tetrazol-5-yl)biphenyl-4-yl)methyl)-2-ethoxy-1H-benzo[d]imidazole-7-carboxylate] |  |  |  | 270 nM | −37 mmHg | −33 mmHg | −34 mmHg
4 | CCOc1nc2cccc(C(=O)OC(C)(C)OC(=O)O[C@@H]3CO[C@H]4[C@@H]3OC[C@H]4OC(=O)OCCC(C)(C)CC(CO[N+](=O)[O-])O[N+](=O)[O-])c2n1Cc1ccc(-c2ccccc2-c2nn[nH]n2)cc1 (stereo partly drawn) [Example 3, 2-(((3R,3aR,6R,6aR)-6-((3,3-dimethyl-5,6-bis(nitrooxy)hexyloxy)carbonyloxy)hexahydrofuro[3,2-b]furan-3-yloxy)carbonyloxy)propan-2-yl 1-((2′-(2H-tetrazol-5-yl)biphenyl-4-yl)methyl)-2-ethoxy-1H-benzo[d]imidazole-7-carboxylate] |  |  |  | 180 nM |  |  | 
